Legend:
[1] = biological target: Beta-1 adrenergic receptor (Homo sapiens) (UniProt P08588); assay: Agonist activity at human adrenergic receptor expressed in CHO cells assessed as cAMP accumulation
[2] = biological target: Beta-3 adrenergic receptor (Homo sapiens) (UniProt P13945)
[3] = biological target: Beta-1 adrenergic receptor (Homo sapiens) (UniProt P08588); conditions: CHO
[4] = biological target: Beta-2 adrenergic receptor (Homo sapiens, UniProt P07550)
Description: Agonist activity at human beta2 adrenergic receptor expressed in CHO cells assessed as cAMP accumulation

[5] = system: Mus musculus; assay: Hypoglycemic activity in diabetic kk mouse assessed as reduction in plasma glucose level at 30 mg/kg, po administered once daily for 4 days by colorimetry; format: functional; parameters: scale not given: the % may be the effect or the level left
[6] = Oral bioavailability in rat; format: ADME, organism-based; conditions: in vivo

Chain of Beta-3 adrenergic receptor (Homo sapiens) (P13945 whole entry, looked up): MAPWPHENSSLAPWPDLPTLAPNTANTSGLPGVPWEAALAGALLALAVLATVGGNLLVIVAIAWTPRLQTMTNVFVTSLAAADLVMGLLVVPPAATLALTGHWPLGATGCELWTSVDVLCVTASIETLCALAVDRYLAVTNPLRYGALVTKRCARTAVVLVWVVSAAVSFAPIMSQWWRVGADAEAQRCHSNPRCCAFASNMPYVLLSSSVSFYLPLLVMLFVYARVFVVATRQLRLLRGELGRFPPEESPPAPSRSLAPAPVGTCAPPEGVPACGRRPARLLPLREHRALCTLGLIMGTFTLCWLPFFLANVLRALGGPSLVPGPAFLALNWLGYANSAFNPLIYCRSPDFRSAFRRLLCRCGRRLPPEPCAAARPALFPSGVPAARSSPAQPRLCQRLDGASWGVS
Chain of Beta-2 adrenergic receptor (P07550 whole entry): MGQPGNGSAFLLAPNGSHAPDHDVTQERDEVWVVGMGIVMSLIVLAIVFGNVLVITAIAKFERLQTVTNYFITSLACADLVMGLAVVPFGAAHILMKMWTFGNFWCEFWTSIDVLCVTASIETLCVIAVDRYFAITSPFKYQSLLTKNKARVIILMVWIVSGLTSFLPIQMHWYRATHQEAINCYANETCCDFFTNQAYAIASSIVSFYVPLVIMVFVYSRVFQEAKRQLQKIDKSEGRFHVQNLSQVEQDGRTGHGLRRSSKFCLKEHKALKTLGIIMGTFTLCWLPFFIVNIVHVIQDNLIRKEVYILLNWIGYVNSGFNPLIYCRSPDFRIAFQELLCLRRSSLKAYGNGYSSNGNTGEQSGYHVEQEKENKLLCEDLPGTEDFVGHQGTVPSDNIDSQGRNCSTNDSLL

| EC50 [1] [µM] | EC50 [2] [µM] | Intrinsic activity [3] | EC50 [4] [µM] | bioavailability [6] [%] | Structure (SMILES) | Activity [5] [%] |
| --- | --- | --- | --- | --- | --- | --- |
| > 100 | 0.28 | 0.04 | > 100 | – | CN(C(=O)Cc1nccn1Cc1ccccc1)c1ccc(CCNC[C@H](O)COc2ccccc2)cc1 | 38 |
| – | – | – | > 100 | – | O=C(Cc1nccn1Cc1ccc2ccccc2c1)Nc1ccc(CCNC[C@H](O)COc2ccccc2)cc1 | – |
| 0.51 | 9.6 | 0.26 | > 100 | – | O=C(Cc1ncc[nH]1)Nc1ccc(CCNC[C@H](O)COc2ccccc2)cc1 | – |
| – | – | – | > 100 | – | O=C(Cc1ccccn1)Nc1ccc(CCNC[C@H](O)COc2cccnc2)cc1 | – |
| > 100 | 0.5 | 0.01 | > 100 | – | CCCN(C(=O)Cc1nccn1Cc1ccccc1)c1ccc(CCNC[C@H](O)COc2ccccc2)cc1 | – |
| – | – | – | > 100 | – | O=C(Cc1cn(Cc2ccccc2)cn1)Nc1ccc(CCNC[C@H](O)COc2ccccc2)cc1 | – |
| – | – | – | > 100 | – | O=C(Cc1ccccn1)Nc1ccc(CCNC[C@H](O)COc2cccc3[nH]c4ccccc4c23)cc1 | – |
| 0.31 | 0.28 | 0.17 | > 100 | – | Cc1cc(C)nc(CC(=O)Nc2ccc(CCNC[C@H](O)COc3ccccc3)cc2)c1 | – |
| > 100 | 120 | 0.11 | > 100 | 27 | O=C(Cc1ccccn1)Nc1ccc(CCNC[C@H](O)COc2ccccc2)cc1 | – |
| 0.39 | 0.33 | 0.18 | > 100 | – | Cc1cccnc1CC(=O)Nc1ccc(CCNC[C@H](O)COc2ccccc2)cc1 | – |
| 2.7 | 0.29 | 0.14 | > 100 | 2 | O=C(Cc1ccccn1)Nc1ccc(CCNC[C@H](O)COc2ccc(O)cc2)cc1 | – |
| 0.13 | 0.18 | 0.2 | > 100 | – | O=C(Cc1nccn1Cc1ccccc1)Nc1ccc(CCNC[C@H](O)COc2ccccc2)cc1 | 43 |
| – | – | – | > 100 | – | O=C(Cc1cccc(Cl)n1)Nc1ccc(CCNC[C@H](O)COc2ccccc2)cc1 | – |
| > 100 | > 100 | 0.01 | > 100 | – | CS(=O)(=O)Nc1ccc(OC[C@@H](O)CNCCc2ccc(NC(=O)Cc3ccccn3)cc2)cc1 | – |
| – | – | – | > 100 | – | O=C(Cc1nccn1Cc1ccccc1)N1CCCc2cc(CCNC[C@H](O)COc3ccccc3)ccc21 | – |
| – | – | – | > 100 | – | O=C(Cc1nccn1-c1ccccc1)Nc1ccc(CCNC[C@H](O)COc2ccccc2)cc1 | – |
| 0.2 | 2.5 | 0.12 | > 100 | – | O=C(Cc1cccc(OCc2ccccc2)n1)Nc1ccc(CCNC[C@H](O)COc2ccccc2)cc1 | – |
| – | – | – | > 100 | – | O=C(Cc1ccccn1)Nc1ccc(CCNC[C@H](O)COc2cccc3[nH]c(=O)[nH]c23)cc1 | – |
| – | – | – | > 100 | – | O=C(Cc1nc2ccccc2n1Cc1ccccc1)Nc1ccc(CCNC[C@H](O)COc2ccccc2)cc1 | – |
| > 100 | 1.3 | 0 | > 100 | – | O=C(Cc1ccccn1)Nc1ccc(CCNC[C@H](O)COc2cccc3[nH]ccc23)cc1 | – |
| 0.074 | 0.27 | 0.13 | > 100 | – | O=C(Cc1nccn1Cc1ccc(Cl)cc1)Nc1ccc(CCNC[C@H](O)COc2ccccc2)cc1 | – |
| 0.071 | 0.19 | 0.3 | > 100 | – | O=C(Cc1nccn1Cc1ccc(Br)cc1)Nc1ccc(CCNC[C@H](O)COc2ccccc2)cc1 | – |

| Structure (SMILES) | EC50 [1] [µM] | EC50 [2] [µM] | Intrinsic activity [3] | EC50 [4] [µM] | bioavailability [6] [%] | Activity [5] [%] |
| --- | --- | --- | --- | --- | --- | --- |
| CC(Cc1ccc(NC(=O)Cc2nccn2Cc2ccccc2)cc1)NC[C@H](O)COc1ccccc1 (single isomer, unassigned; diastereomer I) | – | – | – | 0.027 | – | – |
| CC(Cc1ccc(NC(=O)Cc2nccn2Cc2ccccc2)cc1)NC[C@H](O)COc1ccccc1 (stereo in doubt; 27b) | – | – | – | > 100 | – | – |
